Key:
[1] = test system: HCV replicon (Clone A cells, Huh7, subgenomic hepatits C virus RNA); experiment: HCV Neo screening assay (HCV replicon, NPTII ELISA); format: cell-based, hepatitis C virus; details: for EC50 / inhibition at 25 µM: Hepatitis C virus, Huh-7; for EC50: Secondary Data, HCV; for inhibition at 25 µM: primary screening, 25 μM final concentration, 24 hours, percent inhibition of viral replication, read-out: HCV Inh; for HCV TI: therapeutic index CC50/EC50, HCV
SINV (SR19-F-luc cells) = experiment: SINV antiviral activity, SR19-F-luc cells, Firefly luciferase; format: cell-based; details: Sindbis virus; for inhibition at 25 µM: primary screening, 25 μM final concentration, 24 hours, percent inhibition of viral replication, read-out: SINV Inh; for EC50: secondary screening, SR19-F-luc cells
YFV (YF-hRuPac cells) = experiment: microbe, parasite or virus in culture; format: cell-based, yellow fever virus; details: for inhibition at 25 µM / EC50: Yellow fever virus; for inhibition at 25 µM: 24 h, read-out: YFV Inh; for EC50: read-out: YFV EC50
RSV minigenome = experiment: RSV minigenome-dependent β-galactosidase expression assay (RSV β-Gal); format: cell-based, respiratory syncytial virus; details: for EC50 / inhibition at 25 µM: human respiratory syncytial virus; for EC50: Secondary Data, RSV, read-out: RSV EC50; for inhibition at 25 µM: primary screening, 25 μM final concentration, 24 hours, percent inhibition of viral replication, read-out: RSV Inh; for RSV TI: therapeutic index CC50/EC50, RSV
DNG (D2-hRuPac cells) = experiment: DNG antiviral activity, D2-hRuPac cells, Renilla luciferase; format: cell-based, Dengue fever virus; details: Dengue virus, secondary screening
EBOV minigenome = experiment: microbe, parasite or virus in culture; format: cell-based, Ebola virus; details: Zaire ebolavirus; for inhibition at 25 µM: 24 h, read-out: EBOV Inh; for EC50: read-out: EBOV EC50
WNV (WN-hRuPac cells) = experiment: WNV antiviral activity, WN-hRuPac cells, Renilla luciferase; format: cell-based, West Nile virus; details: for EC50 / inhibition at 25 µM: West Nile virus; for EC50: Secondary Data, WNV, read-out: WNV EC50; for inhibition at 25 µM: primary screening, 25 μM final concentration, 24 hours, percent inhibition of viral replication, read-out: WNV Inh; for WNV TI: therapeutic index CC50/EC50, WNV

SMILES | EC50 [1] [µM] | inhibition at 25 µM [1] [%] | HCV TI [1] | inhibition at 25 µM (SINV (SR19-F-luc cells)) [%] | EC50 (SINV (SR19-F-luc cells)) [µM] | inhibition at 25 µM (YFV (YF-hRuPac cells)) [%] | EC50 (YFV (YF-hRuPac cells)) [µM] | EC50 (RSV minigenome) [µM] | inhibition at 25 µM (RSV minigenome) [%] | RSV TI (RSV minigenome) | EC50 (DNG (D2-hRuPac cells)) [µM] | inhibition at 25 µM (EBOV minigenome) [%] | EC50 (EBOV minigenome) [µM] | CC50 (in vitro; DNG CC50) [µM] | CC50 (in vitro; EBOV CC50) [µM] | CC50 (in vitro; HCV CC50) [µM] | CC50 (in vitro; RSV CC50) [µM] | CC50 (in vitro; SINV CC50) [µM] | CC50 (in vitro; WNV CC50) [µM] | CC50 (in vitro; YFV CC50) [µM] | further results
COC(=O)c1ccc(Nc2cc(C)nc3cc(Cl)ccc23)cc1 [Compound 14] | 1.3 | 81.2 | 57.69 | 56.7 | 17.6 | 54.6 | 9.23 | 36.9 | 48.4 | 1.46 | 54.3 | -19.5 | 65.6 | 53.7 | 53.7 | ≥ 75 | 53.7 | 53.7 | 53.7 | 53.7 | YFV TI (YFV (YF-hRuPac cells)): 5.82; EC50 (WNV (WN-hRuPac cells)): ≥ 75 µM; inhibition at 25 µM (WNV (WN-hRuPac cells)): 51.6%; WNV TI (WNV (WN-hRuPac cells)): 0.72
COc1cccc2c(Nc3ccc4c(c3)OCCO4)cc(C)nc12 [Compound 22] | 18.1 | 55.1 | 0.75 | -22.7 | 72.3 | 29.9 | ≥ 75 | 3 | 75.1 | 19.08 | 35.6 | 72 | 5.31 | 57.2 | 57.2 | 13.7 | 57.2 | 57.2 | 57.2 | 57.2 | YFV TI (YFV (YF-hRuPac cells)): 0.76; EC50 (WNV (WN-hRuPac cells)): 22.4 µM; inhibition at 25 µM (WNV (WN-hRuPac cells)): 48.8%; WNV TI (WNV (WN-hRuPac cells)): 2.56
COc1ccc(Nc2cc(C)nc3c2ccc2ccccc23)cc1 [Compound 7] | 5.87 | 104 | 2.39 | 7.58 | ≥ 75 | 64.1 | ≥ 75 | 10 | 76.9 | 7.5 | 17 | 85.3 | 10.8 | ≥ 75 | ≥ 75 | 14 | ≥ 75 | ≥ 75 | ≥ 75 | ≥ 75 | EC50 (WNV (WN-hRuPac cells)): ≥ 75 µM; inhibition at 25 µM (WNV (WN-hRuPac cells)): 34.3%
Cc1cc(C)c2nc(C)cc(NCc3ccco3)c2c1 [Compound 54] | 26 | 101 | 0.92 | 47.8 | 38.3 | 91.1 | 4.14 | 5.8 | 87.9 | 8.66 | 21.9 | 38.4 | 75 | 50.2 | 50.2 | 23.9 | 50.2 | 50.2 | 50.2 | 50.2 | YFV TI (YFV (YF-hRuPac cells)): 12.13; EC50 (WNV (WN-hRuPac cells)): 6.91 µM; inhibition at 25 µM (WNV (WN-hRuPac cells)): 84.4%; WNV TI (WNV (WN-hRuPac cells)): 7.26
COc1ccc2nc(C)cc(Nc3ccc(OCc4ccccc4Cl)cc3)c2c1 [Compound 43] | 1.6 | 95.4 | 1.31 | 99.7 | 4.08 | 100 | 1.41 | 2.24 | 100 | 11.63 | 1.65 | 98.7 | 75 | 26.1 | 26.1 | 2.09 | 26.1 | 26.1 | 26.1 | 26.1 | YFV TI (YFV (YF-hRuPac cells)): 18.48; EC50 (WNV (WN-hRuPac cells)): 5.45 µM; inhibition at 25 µM (WNV (WN-hRuPac cells)): 99.9%; WNV TI (WNV (WN-hRuPac cells)): 4.78
CCOC(=O)c1cnc2ccc(OCC)cc2c1Nc1ccccc1CC [Compound 34] | 11.4 | 78.6 | 3.12 | 34 | ≥ 75 | 58.5 | 23 | 5.08 | 77.3 | 12.19 | ≥ 75 | 53.8 | 75 | 61.9 | 61.9 | 35.6 | 61.9 | 61.9 | 61.9 | 61.9 | YFV TI (YFV (YF-hRuPac cells)): 2.69; EC50 (WNV (WN-hRuPac cells)): 39.1 µM; inhibition at 25 µM (WNV (WN-hRuPac cells)): 60.4%; WNV TI (WNV (WN-hRuPac cells)): 1.58

— patent publication US20090221624A1, “4-AMINOQUINOLINE COMPOUNDS FOR TREATING VIRUS-RELATED CONDITIONS” (priority 2005, published 2009)
